The subject of one experiment is diabetic db/db mice. The experiment in a line: Determination of Blood Glucose Lowering in Diabetic db/db Mice. The experiment is classed as in vivo, male diabetic db/db (C57BL/KsJ) mice. As to conditions: p.o.; for plasma glucose lowering compared with ciglitazone / % Change glucose: 100 mg/kg; for plasma glucose lowering compared with ciglitazone: in words; for % Change glucose: plasma glucose Day 4 (mean of 2 and 4 hr samples) vs Day 1 baseline. The method, then:
2. Determination of Blood Glucose Lowering in Diabetic db/db Mice. On the morning of Day 1, 35 mice [male diabetic db/db (C57BL/KsJ) mice (Jackson Laboratories), 2-7 months of age and 50-70 g] were fasted for 4 hours, weighed and a baseline blood sample (15-30 μl) was collected from the tail-tip of each mouse without anesthesia, and placed directly into a fluoride-containing tube, mixed and maintained on ice. Food was then returned to the mice. The plasma was separated and levels of glucose in plasma determined by the Abbott VP Analyzer. Because of the variable plasma glucose levels of the db/db mice, 5 mice having the most extreme (i.e., highest or lowest) plasma glucose levels were excluded and the remaining 30 mice were randomly assigned into 7 groups of equivalent mean plasma glucose levels (N=6 for vehicle and N=4 for each drug group). On the afternoon of Days 1, 2 and 3, the vehicle, control or test drugs were administered (p.o.) to the ad libitum fed mice. On the morning of Day 4, the mice were weighed and food removed, but water was available ad libitum. Three hours later, a blood sample was collected and then the mice were given the fourth administration of drug or vehicle. Blood samples were collected again from the unanesthetized mice at 2 and 4 hours after drug administration. The plasma was separated and levels of glucose in plasma was determined by the Abbott VP Analyzer. For each mouse, the percent change of its plasma glucose level on Day 4 (mean of the 2 and 4 hr samples) from respective level before drug administration (Day 1 baseline sample) is determined as follows: [formula] Analysis of variance followed by Dunnett's multiple comparison (one-sided) will be used to estimate the 'degree of statistical significance of the difference between the vehicle control group and the individual drug-treated groups. A drug will be considered active, at the specific dosage administered, if the difference of the plasma glucose level has a p<0.05.

Experiment [1] concerns the target T1, bovine lens aldose reductase (Bos taurus, UniProt P16116).
T1 construct: preparation of the enzyme from bovine lens; from tissue; host or cells: bovine lens
The experiment in a line: In vitro Inhibition of Aldose Reductase in the Bovine Lens. As to conditions: DL-glyceraldehyde as substrate; for inhibition at 0.04 µM: dose 4 × 10^-8 M; for inhibition at 0.1 µM: dose 10^-7 M. The class given is biochemical. As to the method:
I. In vitro Inhibition of Aldose Reductase in the Bovine Lens
The aldose reductase inhibiting effects of the compounds of formula I were tested by employing an in vitro testing procedure similar to that described by S. Hayman and J. H. Kinoshita, J. Biol. Chem., 240, 877 (1965) wherein the abilitty of the invention compounds to inhibit bovine lens aldose reductase with DL-glyceraldehyde as the substrate was determined. In the present case the procedure of Hayman and Kinoshita was modified in that the final chromatography step was omitted in the preparation of the enzyme from bovine lens.

The subject of the next experiment is ob/ob mice. The experiment in a line: Determination of Blood Glucose Lowering Effect in ob/ob mice. Particulars: 100 mg/kg, p.o. The experiment is classed as in vivo, ob/ob mice (C57B1/6J). The method, then:
3. Determination of Blood Glucose Lowering Effect in ob/ob mice
Male or female ob/ob mice (C57B1/6J), ages 2 to 5 months (10 to 65 g), of a similar age are randomized according to plasma glucose into 4 groups of 10 mice. The mice are housed 5 per cage and are maintained on normal rodent chow with water ad libitum. The mice receive test compound daily. The test compound is suspended in 0.5 mL of 0.5% methyl cellulose and is administered by gavage (dissolved in drinking water) or admixed in the diet. The dose of compound given ranges from 2.5 to 200 mg/kg/day. Body weight of fed animals is measured at the beginning of each week and doses for the entire week are calculated using this weight and are expressed in terms of the active moiety of the compound. Control mice receive vehicle only.
On the morning of Days 4, 7 or 14 two drops of blood (approximately 50 μl) are collected into sodium fluoride containing tubes either from the tail vein or after decapitation. […] The plasma is isolated by centrifugation and the concentration of glucose is measured enzymatically on an Abbott V. P. Analyzer and the plasma concentration of insulin is determined by radioimmunoassay (Heding, 1972). For each mouse, the percentage change in plasma glucose on Day 4, 7 or 14 is calculated relative to the mean plasma glucose of the vehicle treated mice. […]

For orientation: inhibition means the share of the control response that was lost under treatment. `Cc1c(Cl)c(OCC(=O)O)c(Cc2ccc3c(Cl)cccc3c2)c(O)c1C=O` [Example 1, [2-chloro-6-(5-chloro-naphthalen-2-ylmethyl)-4-formyl-5-hydroxy-3-methyl-phenoxy]-acetic acid]: in the experiment on diabetic db/db mice, the “plasma glucose lowering compared with ciglitazone” value is “comparable with the results for ciglitazone” and the “% Change glucose” value is recorded as -19%. In experiment [1], this molecule came in with an inhibition at 0.04 µM of 49%. Also, the “% Change glucose” value with ob/ob mice (plasma glucose on Day 4, 7 or 14 relative to vehicle mean) is given as -24%. For the same molecule, the “% Change insulin” value in the experiment on ob/ob mice (plasma insulin by radioimmunoassay, Day 4, 7 or 14) was -38%. For `O=Cc1ccc(OCC(=O)O)c(Cc2ccc3ccccc3c2)c1O` [Example 2, (4-formyl-3-hydroxy-2-naphthalen-2-ylmethyl-phenoxy)-acetic acid], in the experiment on diabetic db/db mice, the “plasma glucose lowering compared with ciglitazone” value was “comparable with the results for ciglitazone” and the “% Change glucose” value is on record as -23%. Moreover, the inhibition at 0.1 µM in experiment [1] amounted to 34%. In experiment [1] (dose 10^-6 M), `O=Cc1ccc(OCC(=O)O)c(Cc2cccc3ccccc23)c1O` [Example 3, (4-formyl-3-hydroxy-2-naphthalen-1-ylmethyl-phenoxy)-acetic acid] yielded an inhibition at 1 µM of 53%. `O=Cc1ccc(OCC(=O)O)c(Cc2ccc3c(Cl)cccc3c2)c1O` [Example 4, [2-(5-chloro-naphthalen-2-ylmethyl)-4-formyl-3-hydroxy-phenoxy]-acetic acid]: testing at 0.04 µM in experiment [1] gave an inhibition of 78%. The same measure, in the same setting: as for `O=Cc1ccc(OCC(=O)O)c(Cc2ccc3c(Br)cccc3c2)c1O` [Example 5, [2-(5-bromo-naphthalen-2-ylmethyl)-4-formyl-3-hydroxy-phenoxy]-acetic acid], the figure is 84%; as for `O=Cc1ccc(OCC(=O)O)c(Cc2ccc3ccccc3c2Br)c1O` [Example 6, [2-(1-bromo-naphthalen-2-ylmethyl)-4-formyl-3-hydroxy-phenoxy]-acetic acid], 78%; as for `COc1c(C=O)ccc(OCC(=O)O)c1Cc1ccc2c(Cl)cccc2c1` [Example 7, [2-(5-chloro-naphthalen-2-ylmethyl)-4-formyl-3-methoxy-phenoxy]-acetic acid], 83%.

In experiment [1], `COc1cc(OCC(=O)O)c(Cc2ccc3c(Cl)cccc3c2)c(O)c1C=O` [Example 8, [2-(5-chloro-naphthalen-2-ylmethyl)-4-formyl-3-hydroxy-5-methoxy-phenoxy]-acetic acid] had an inhibition at 0.04 µM of 81%. As for `Cc1cc(OCC(=O)O)c(Cc2ccc3c(Cl)cccc3c2)c(O)c1C=O` [Example 9, [2-(5-chloro-naphthalen-2-ylmethyl)-4-formyl-3-hydroxy-5-methyl-phenoxy]-acetic acid], in experiment [1], the inhibition at 0.04 µM turned out to be 89%. Take `O=Cc1cc(Cl)c(OCC(=O)O)c(Cc2ccc3c(Cl)cccc3c2)c1O` [Example 10, [6-chloro-2-(5-chloro-naphthalen-2-ylmethyl)-4-formyl-3-hydroxy-phenoxy]-acetic acid]: at 0.1 µM the inhibition in experiment [1] was 36%. As to `CC1(COc2ccc(CC3SC(=O)NC3=O)cc2)CCCCC1` (stereo not drawn) [ciglitazone, reference compound], the “decrease in plasma glucose levels (average)” value with diabetic db/db mice (positive control, 100 mg/kg/day × 4 days, average) is reported as 26%. For the same molecule, the “decrease in plasma glucose levels” value in the experiment on diabetic db/db mice (positive control, 100 mg/kg/day × 4 days, range) is 18 to 34%.

Values taken from patent US5677342A, “Phenoxy acetic acids as aldose reductase inhibitors and antihyperglycemic agents” (American Home Products Corporation, priority 1996, dated 1997).
